# Source: patent US9969749B2, “Inhibitors of IRAK4 activity” (MERCK SHARP & DOHME CORP., priority 2014, dated 2018)
# Target: IRAK4 (Homo sapiens (Human), UniProt Q9NWZ3)
# Assay: IRAK4 Kinase Assay (IMAP fluorescence polarization)
# Type: biochemical
# Details: 0.5 nM GST tagged IRAK4, 100 μM ATP, 100 nM fluorescent peptide substrate RP7030, 30 minutes at 25° C.
# Procedure: The kinase activity of IRAK4 is determined by its ability to catalyze the phosphorylation of a fluorescent polypeptide substrate. The extent of phosphorylation is measured using the IMAP technology (Molecular Devices) where the phosphorylated fluorescent substrate binds to the large M(III)-based nanoparticles which reduces the rotational speed of the substrate and thus increases its fluorescent polarization (FP).
# 20 μL reaction mixture contains 10 mM TriHCl, pH 7.2, 0.5 nM GST tagged IRAK4 (SignalChem), 100 nM fluorescent peptide substrate (RP7030, Molecular Devices), 100 μM ATP, 1 mM DDT, 1 mM MgCl2, and 0.01% Tween 20. The reaction is initiated by the addition of ATP. After incubation for 30 minutes at 25° C., 60 μL of Progressive IMAP Reagent (Molecular Devices) is added to stop the reaction. Change in RP7030's FP is determined by a FP reader (Analyst HT, LJL BioSystems).
# IRAK4, sequence (Q9NWZ3 whole entry): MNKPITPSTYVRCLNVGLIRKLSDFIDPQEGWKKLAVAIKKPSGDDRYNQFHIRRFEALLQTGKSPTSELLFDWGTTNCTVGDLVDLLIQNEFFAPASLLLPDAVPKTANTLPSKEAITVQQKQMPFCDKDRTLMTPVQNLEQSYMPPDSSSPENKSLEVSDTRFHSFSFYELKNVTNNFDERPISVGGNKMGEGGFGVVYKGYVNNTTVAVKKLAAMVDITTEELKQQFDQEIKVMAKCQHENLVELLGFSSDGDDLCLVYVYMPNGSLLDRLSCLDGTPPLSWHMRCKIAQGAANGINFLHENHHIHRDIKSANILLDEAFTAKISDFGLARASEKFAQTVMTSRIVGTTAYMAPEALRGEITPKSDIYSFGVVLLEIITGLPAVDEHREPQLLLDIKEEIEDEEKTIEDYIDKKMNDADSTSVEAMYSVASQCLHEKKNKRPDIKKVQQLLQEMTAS
row,SMILES,IC50
1,"CN(C)C1CCC(Nc2ncnc3ccc(-c4ccccc4)cc23)CC1 (single isomer, unassigned) [Example 1-2, cis or trans-N,N-dimethyl-N′-(6-phenylquinazolin-4-yl)cyclohexane-1,4-diamine]",3160 nM
2,"CN(C)C1CCC(Nc2ncnc3ccc(-c4ccncc4)cc23)CC1 (single isomer, unassigned) [Example 1-3, cis or trans-N,N-dimethyl-N′-[6-(pyridin-4-yl)quinazolin-4-yl]cyclohexane-1,4-diamine]",2290 nM
3,"CN(C)C1CCC(Nc2ncnc3ccc(-c4cccnc4)cc23)CC1 (single isomer, unassigned) [Example 1-4, cis or trans-N,N-dimethyl-N′-[6-(pyridin-3-yl)quinazolin-4-yl]cyclohexane-1,4-diamine]",1610 nM
4,"CN(C)C1CCC(Nc2ncnc3ccc(-c4cn[nH]c4)cc23)CC1 (stereo not drawn) [Example 1-10, cis or trans-N,N-dimethyl-N′-[6-(1H-pyrazol-4-yl)quinazolin-4-yl]cyclohexane-1,4-diamine]",1 nM
5,"CN(C)C1CCC(Nc2ncnc3ccc(-c4ccc(N)nc4)cc23)CC1 (stereo not drawn) [Example 1-11, cis or trans-N′-[6-(6-aminopyridin-3-yl)quinazolin-4-yl]-N,N-dimethylcyclohexane-1,4-diamine]",36 nM
6,"CNc1ncc(-c2ccc3ncnc(N[C@H]4CC[C@H](N(C)C)CC4)c3c2)cn1 [Example 1-13, trans-N,N-dimethyl-N′-{6-[2-(methylamino)pyrimidin-5-yl]quinazolin-4-yl}cyclohexane-1,4-diamine]",28 nM
7,"CCOC(C)n1cc(-c2ccc3ncnc(N[C@H]4CC[C@H](N(C)C)CC4)c3c2)cn1 (stereo partly drawn) [Example 1-14, trans-N′-{6-[1-(1-ethoxyethyl)-1H-pyrazol-4-yl]quinazolin-4-yl}-N,N-dimethylcyclohexane-1,4-diamine]",1360 nM
8,"CN(C)[C@H]1CC[C@H](Nc2ncnc3ccc(-c4cnn(CCN5CCOCC5)c4)cc23)CC1 [Example 1-15, trans-N,N-dimethyl-N′-(6-{1-[2-(morpholin-4-yl)ethyl]-1H-pyrazol-4-yl}quinazolin-4-yl)cyclohexane-1,4-diamine]",1320 nM
9,"CN(C)[C@H]1CC[C@H](Nc2ncnc3ccc(-c4cnn(C5CCCCO5)c4)cc23)CC1 (stereo partly drawn) [Example 1-16, trans-N,N-dimethyl-N′-{6-[1-(tetrahydro-2H-pyran-2-yl)-1H-pyrazol-4-yl]quinazolin-4-yl}cyclohexane-1,4-diamine]",217 nM
10,"CN(C)[C@H]1CC[C@H](Nc2ncnc3ccc(-c4cnn(Cc5ccccn5)c4)cc23)CC1 [Example 1-17, trans-N,N-dimethyl-N′-{6-[1-(pyridin-2-ylmethyl)-1H-pyrazol-4-yl]quinazolin-4-yl}cyclohexane-1,4-diamine]",372 nM
11,"CCn1cc(-c2ccc3ncnc(N[C@H]4CC[C@H](N(C)C)CC4)c3c2)cn1 [Example 1-18, trans-N′-[6-(1-ethyl-1H-pyrazol-4-yl)quinazolin-4-yl]-N,N-dimethylcyclohexane-1,4-diamine]",92 nM
12,"CN(C)[C@H]1CC[C@H](Nc2ncnc3ccc(-c4cnn(Cc5ccncc5)c4)cc23)CC1 [Example 1-19, trans-N,N-dimethyl-N′-{6-[1-(pyridin-4-ylmethyl)-1H-pyrazol-4-yl]quinazolin-4-yl}cyclohexane-1,4-diamine]",358 nM
13,"CN(C)[C@H]1CC[C@H](Nc2ncnc3ccc(-c4ccncc4C#N)cc23)CC1 [Example 1-20, 4-(4-{[trans-4-(dimethylamino)cyclohexyl]amino}quinazolin-6-yl)pyridine-3-carbonitrile]",85 nM
14,"Cc1cnccc1-c1ccc2ncnc(N[C@H]3CC[C@H](N(C)C)CC3)c2c1 [Example 1-21, trans-N,N-dimethyl-N′-[6-(3-methylpyridin-4-yl)quinazolin-4-yl]cyclohexane-1,4-diamine]",155 nM
15,"CN(C)[C@H]1CC[C@H](Nc2ncnc3ccc(-c4cnccc4C#N)cc23)CC1 [Example 1-22, 3-(4-{[trans-4-(dimethylamino)cyclohexyl]amino}quinazolin-6-yl)pyridine-4-carbonitrile]",54 nM
16,"CN(C)[C@H]1CC[C@H](Nc2ncnc3ccc(-c4cncc(N5CCOCC5)c4)cc23)CC1 [Example 1-23, trans-N,N-dimethyl-N′-{6-[5-(morpholin-4-yl)pyridin-3-yl]quinazolin-4-yl}cyclohexane-1,4-diamine]",498 nM
17,"Cc1noc(C)c1-c1ccc2ncnc(N[C@H]3CC[C@H](N(C)C)CC3)c2c1 [Example 1-24, trans-N′-[6-(3,5-dimethylisoxazol-4-yl)quinazolin-4-yl]-N,N-dimethylcyclohexane-1,4-diamine]",333 nM
18,"Cc1onc(-c2ccccc2)c1-c1ccc2ncnc(N[C@H]3CC[C@H](N(C)C)CC3)c2c1 [Example 1-26, trans-N,N-dimethyl-N′-[6-(5-methyl-3-phenylisoxazol-4-yl)quinazolin-4-yl]cyclohexane-1,4-diamine]",698 nM
19,"CN(C)[C@H]1CC[C@H](Nc2ncnc3ccc(-c4ccc(C#N)nc4)cc23)CC1 [Example 1-27, 5-(4-{[trans-4-(dimethylamino)cyclohexyl]amino}quinazolin-6-yl)pyridine-2-carbonitrile]",43 nM
20,"Cc1ccc(-c2ccc3ncnc(N[C@H]4CC[C@H](N(C)C)CC4)c3c2)cn1 [Example 1-30, trans-N,N-dimethyl-N′-[6-(6-methylpyridin-3-yl)quinazolin-4-yl]cyclohexane-1,4-diamine]",42 nM
21,"COC(=O)c1cncc(-c2ccc3ncnc(N[C@H]4CC[C@H](N(C)C)CC4)c3c2)c1 [Example 1-31, methyl 5-(4-{[trans-4-(dimethylamino)cyclohexyl]amino}quinazolin-6-yl)pyridine-3-carboxylate]",45 nM
22,"COc1ccncc1-c1ccc2ncnc(N[C@H]3CC[C@H](N(C)C)CC3)c2c1 [Example 1-35, trans-N′-[6-(4-methoxypyridin-3-yl)quinazolin-4-yl]-N,N-dimethylcyclohexane-1,4-diamine]",394 nM

# The remaining lines, values ahead:
row,IC50,SMILES
1,19 nM,"CN(C)C1CCC(Nc2ncnc3ccc(-c4ccccc4)cc23)CC1 (single isomer, unassigned) [Example 1-5, cis or trans-N,N-dimethyl-N′-(6-phenylquinazolin-4-yl)cyclohexane-1,4-diamine]"
2,11 nM,"CN(C)C1CCC(Nc2ncnc3ccc(-c4ccncc4)cc23)CC1 (single isomer, unassigned) [Example 1-6, cis or trans-N,N-dimethyl-N′-[6-(pyridin-4-yl)quinazolin-4-yl]cyclohexane-1,4-diamine]"
3,13 nM,"CN(C)C1CCC(Nc2ncnc3ccc(-c4cccnc4)cc23)CC1 (single isomer, unassigned) [Example 1-7, cis or trans-N,N-dimethyl-N′-[6-(pyridin-3-yl)quinazolin-4-yl]cyclohexane-1,4-diamine]"
4,27 nM,"Cc1cc(-c2ccc3ncnc(N[C@H]4CC[C@H](N(C)C)CC4)c3c2)cnn1 [Example 1-1, Trans-N,N-dimethyl-N′-[6-(6-methylpyridazin-4-yl)quinazolin-4-yl]cyclohexane-1,4-diamine]"
5,25 nM,"COc1cc(-c2ccc3ncnc(N[C@H]4CC[C@H](N(C)C)CC4)c3c2)ccn1 [Example 1-8, trans-N′-[6-(2-methoxypyridin-4-yl)quinazolin-4-yl]-N,N-dimethylcyclohexane-1,4-diamine]"
6,5 nM,"Cn1cc(-c2ccc3ncnc(N[C@H]4CC[C@H](N(C)C)CC4)c3c2)cn1 [Example 1-9, trans-N,N-dimethyl-N′-[6-(1-methyl-1H-pyrazol-4-yl)quinazolin-4-yl]cyclohexane-1,4-diamine]"
7,17 nM,"CN(C)[C@H]1CC[C@H](Nc2ncnc3ccc(-c4cc[nH]n4)cc23)CC1 [Example 1-12, trans-N,N-dimethyl-N′-[6-(1H-pyrazol-3-yl)quinazolin-4-yl]cyclohexane-1,4-diamine]"
8,3 nM,"CN(C)[C@H]1CC[C@H](Nc2ncnc3ccc(-c4cncnc4)cc23)CC1 [Example 1-25, trans-N,N-dimethyl-N′-[6-(pyrimidin-5-yl)quinazolin-4-yl]cyclohexane-1,4-diamine]"
9,7 nM,"CN(C)[C@H]1CC[C@H](Nc2ncnc3ccc(-c4ccc(O)nc4)cc23)CC1 [Example 1-28, 5-(4-{[trans-4-(dimethylamino)cyclohexyl]amino}quinazolin-6-yl)pyridin-2-ol]"
10,19 nM,"CN(C)[C@H]1CC[C@H](Nc2ncnc3ccc(-c4cnc(N)nc4)cc23)CC1 [Example 1-29, trans-N′-[6-(2-aminopyrimidin-5-yl)quinazolin-4-yl]-N,N-dimethylcyclohexane-1,4-diamine]"
11,9 nM,"CN(C)[C@H]1CC[C@H](Nc2ncnc3ccc(-c4cnoc4)cc23)CC1 [Example 1-32, trans-N′-[6-(isoxazol-4-yl)quinazolin-4yl]-N,N-dimethylcyclohexane-1,4-diamine]"
12,9 nM,"CN(C)[C@H]1CC[C@H](Nc2ncnc3ccc(-c4cnc(O)nc4)cc23)CC1 [Example 1-33, 5-(4-{[trans-4-(dimethylamino)cyclohexyl]amino}quinazolin-6-yl)pyrimidin-2-ol]"
13,11 nM,"CN(C)[C@H]1CC[C@H](Nc2ncnc3ccc(-c4ccncc4F)cc23)CC1 [Example 1-34, trans-N′-[6-(3-fluoropyridin-4-yl)quinazolin-4-yl]-N,N-dimethylcyclohexane-1,4-diamine]"
